Test results: publication PMC7046148 (Scientific Reports, 2020)

How the values were obtained:
XCL-1 hiPSC CRBN KO/KI = assay: cells; assay type: cell-based; details: Homo sapiens, 72 h; XCL-1 CRBN KO/KI; 3 d differentiation; read-out: IC50 (±SEM) in SOX17 differentiation assay
Procedure: (§1) The assay was carried out as previously described with continuous dosing of chemical for 3 total days of differentiation. SOX17 staining and DAPI counter-staining were carried out as described, and assays were imaged via high content imaging. […]
(§2) Supplementary Figure 7. Dose-response characterization of the influence […]
(§3) of XCL-1 clones. High content imaging analysis of XCL-1 hiPSC clones that were differentiated for 3 days in the presence of compound and subsequently stained for SOX17 and counter-stained with DAPI. Untreated DMSO control is omitted. Data represent the mean +/- SEM %SOX17 cells
(§4) (relative to control) from 4 independent experiments. Nonlinear regression […]
(§5) variable slope plotting tool in GraphPad Prism. A-C: Dose-response […]
(§6) in cereblon mock (hollow circles) or CRBN KO/KI (red filled circles) clones. D- […]

XCL-1 hiPSC CRBN Mock = assay: cells; assay type: cell-based; details: Homo sapiens, 72 h; XCL-1 CRBN Mock; 3 d differentiation; read-out: IC50 (±SEM) in SOX17 differentiation assay
Procedure: as §1, §2, §3, §4, §5, §6

XCL-1 hiPSC SALL4 Mock = assay: cells; assay type: cell-based; details: Homo sapiens, 72 h; XCL-1 SALL4 Mock; 3 d differentiation; read-out: IC50 (±SEM) in SOX17 differentiation assay
Procedure: as §1, §2, §3, §4, §5, §6

XCL-1 hiPSC SALL4^G416A = assay: cells; assay type: cell-based; details: Homo sapiens, 72 h; XCL-1 SALL4^G416A; 3 d differentiation; read-out: IC50 (±SEM) in SOX17 differentiation assay
Procedure: as §1, §2, §3, §4, §5, §6

SALL4 = biological target: T1, SALL4 (Homo sapiens, UniProt Q96SW2+Q9UJQ4); assay: SALL4 MFI by high content imaging, XCL-1 SALL4 mock hiPSCs; assay type: cell-based; details: SALL4 mock control hiPSCs, 8 h of treatment
T1 construct: Unmodified Gibco hiPSCs were either differentiated in APEL2 + GSKi or maintained in mTeSR1, and SALL4 nuclear protein expression was monitored; endogenous in cells; host or cells: Gibco hiPSCs; XCL-1 SALL4 mock hiPSC clone
T1 sequence (Q9UJQ4 whole entry): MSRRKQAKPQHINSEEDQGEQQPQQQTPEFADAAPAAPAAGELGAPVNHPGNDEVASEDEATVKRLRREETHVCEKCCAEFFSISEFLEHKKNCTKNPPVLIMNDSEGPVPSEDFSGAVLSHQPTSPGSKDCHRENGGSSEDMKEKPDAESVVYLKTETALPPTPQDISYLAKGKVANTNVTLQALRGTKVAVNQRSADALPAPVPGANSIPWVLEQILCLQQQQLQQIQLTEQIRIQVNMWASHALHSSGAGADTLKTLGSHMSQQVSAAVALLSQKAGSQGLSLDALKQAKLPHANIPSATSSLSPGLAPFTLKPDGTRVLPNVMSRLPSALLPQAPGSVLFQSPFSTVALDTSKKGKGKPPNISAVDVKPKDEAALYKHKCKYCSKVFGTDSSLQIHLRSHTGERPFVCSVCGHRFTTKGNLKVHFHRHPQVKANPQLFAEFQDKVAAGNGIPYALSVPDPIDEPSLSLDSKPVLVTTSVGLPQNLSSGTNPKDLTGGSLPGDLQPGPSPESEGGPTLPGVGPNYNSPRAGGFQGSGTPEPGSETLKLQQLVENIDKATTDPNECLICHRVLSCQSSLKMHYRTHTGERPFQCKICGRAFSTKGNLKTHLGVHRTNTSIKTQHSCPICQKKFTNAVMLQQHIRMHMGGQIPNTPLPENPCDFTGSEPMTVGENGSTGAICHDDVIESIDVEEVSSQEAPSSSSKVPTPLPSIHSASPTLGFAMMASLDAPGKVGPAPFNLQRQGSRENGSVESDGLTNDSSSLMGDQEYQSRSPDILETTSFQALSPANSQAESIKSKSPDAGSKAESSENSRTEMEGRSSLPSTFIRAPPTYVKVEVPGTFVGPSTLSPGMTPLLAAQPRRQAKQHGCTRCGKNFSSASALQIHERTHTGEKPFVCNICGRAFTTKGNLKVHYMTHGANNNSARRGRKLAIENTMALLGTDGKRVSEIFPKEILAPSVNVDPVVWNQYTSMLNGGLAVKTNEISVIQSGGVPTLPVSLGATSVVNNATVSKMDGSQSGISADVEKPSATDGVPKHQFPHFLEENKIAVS
T1 sequence (Q96SW2 whole entry): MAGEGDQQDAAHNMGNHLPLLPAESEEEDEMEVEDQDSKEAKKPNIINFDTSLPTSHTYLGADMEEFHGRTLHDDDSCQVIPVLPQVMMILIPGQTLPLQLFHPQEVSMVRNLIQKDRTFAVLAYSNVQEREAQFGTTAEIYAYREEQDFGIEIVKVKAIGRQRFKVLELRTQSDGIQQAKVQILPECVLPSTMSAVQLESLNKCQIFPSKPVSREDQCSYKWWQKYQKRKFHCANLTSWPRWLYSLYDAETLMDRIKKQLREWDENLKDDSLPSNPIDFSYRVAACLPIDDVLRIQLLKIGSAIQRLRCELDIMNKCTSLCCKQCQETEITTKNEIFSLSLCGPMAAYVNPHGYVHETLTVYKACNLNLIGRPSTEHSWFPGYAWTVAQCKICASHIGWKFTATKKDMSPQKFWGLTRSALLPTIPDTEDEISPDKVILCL
T1 sequence (Q16531 whole entry partner): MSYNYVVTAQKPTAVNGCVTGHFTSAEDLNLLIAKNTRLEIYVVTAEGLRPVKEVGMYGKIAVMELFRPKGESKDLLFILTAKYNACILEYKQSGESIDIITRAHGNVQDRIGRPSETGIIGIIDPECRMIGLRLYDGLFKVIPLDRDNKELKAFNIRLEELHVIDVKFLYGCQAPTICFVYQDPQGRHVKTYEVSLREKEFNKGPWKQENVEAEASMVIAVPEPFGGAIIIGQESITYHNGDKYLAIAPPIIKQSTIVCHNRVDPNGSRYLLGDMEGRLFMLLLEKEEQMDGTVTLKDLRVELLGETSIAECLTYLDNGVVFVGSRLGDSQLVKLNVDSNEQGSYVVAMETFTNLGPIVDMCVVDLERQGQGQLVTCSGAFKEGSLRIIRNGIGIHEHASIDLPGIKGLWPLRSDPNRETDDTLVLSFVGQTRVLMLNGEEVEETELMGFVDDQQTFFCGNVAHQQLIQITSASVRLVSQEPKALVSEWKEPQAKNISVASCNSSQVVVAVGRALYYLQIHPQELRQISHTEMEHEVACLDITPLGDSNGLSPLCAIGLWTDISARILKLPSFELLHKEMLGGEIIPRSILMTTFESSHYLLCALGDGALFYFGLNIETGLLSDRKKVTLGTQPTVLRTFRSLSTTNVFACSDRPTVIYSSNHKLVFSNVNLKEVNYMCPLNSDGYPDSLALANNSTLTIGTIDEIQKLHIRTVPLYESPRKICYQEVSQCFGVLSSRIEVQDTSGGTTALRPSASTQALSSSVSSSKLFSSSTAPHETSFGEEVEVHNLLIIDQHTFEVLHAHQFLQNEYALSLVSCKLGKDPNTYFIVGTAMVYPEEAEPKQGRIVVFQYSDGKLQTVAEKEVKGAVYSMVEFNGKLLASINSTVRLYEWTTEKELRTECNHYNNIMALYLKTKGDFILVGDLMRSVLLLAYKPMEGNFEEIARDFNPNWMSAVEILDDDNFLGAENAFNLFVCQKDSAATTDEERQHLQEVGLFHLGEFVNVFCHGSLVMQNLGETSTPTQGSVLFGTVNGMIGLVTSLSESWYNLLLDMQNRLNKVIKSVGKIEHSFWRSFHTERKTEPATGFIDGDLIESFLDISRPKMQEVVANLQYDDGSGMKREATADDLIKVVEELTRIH
From the text: High content imaging analysis of SALL4 immunofluorescence with DAPI counterstaining in hiPSCs. […] Data represent the mean +/− SEM from 2 independent experiments.

Gibco hiPSCs = assay: qRT-PCR characterization of LPM differentiation, Gibco hiPSCs in 2D; assay type: cell-based, human; details: 20 µM thalidomide, 2 d in APEL2+GSKi; for effect on marker gene expression during LPM differentiation (words): 2D
Procedure: The TaqMan hPSC Scorecard Assay (Thermo Fisher) was used to assess the pluripotency of cultured Gibco hiPSCs and the XCL-1 hiPSC clones as described. The assay outputs scores for self-renewal, ectoderm, endoderm, and mesoderm genes.
Gibco hiPSCs were seeded in small clumps at ~10% confluence on Matrigel-coated dishes and were cultured for 1 d in mTeSR-1. On the following day after seeding, the medium was switched to APEL2 basal medium (Stem Cell Technologies) supplemented with 5 µM CHIR99021 (Stem Cell Technologies) (hereafter referred to as APEL2 + GSKi). hiPSCs were cultured for the described duration in APEL2 + GSKi and were characterized by qRT-PCR and immunofluorescence. Briefly, RNA was extracted using buffer RLT supplemented with 1% β-mercaptoethanol and purified from hiPSCs using RNeasy kit (Qiagen) with optional DNase step. Reverse transcription was carried out using the high capacity cDNA reverse transcription kit (ThermoFisher). cDNA was characterized using Qubit HS dsDNA kit (Invitrogen), and qRT-PCR was carried out using TaqMan primer/probes (Thermo Fisher) and fast advanced master mix (Thermo Fisher) per manufacturer’s instructions on either the Viia7 or QuantStudio 5 (Thermo Fisher). Assay results were normalized to ACTB housekeeping control and the undifferentiated control (day 0) via the 2^−ΔΔCT method. The capacity of Gibco hiPSCs and XCL-1 hiPSCs to undergo LPM differentiation was also assessed using qRT-PCR for markers of pluripotency (NANOG, POU5F1), primitive streak (T, SOX17), LPM (FOXF1, GATA4), and limb mesenchyme (PITX1, TBX5).
Data represent the mean ± log2 fold change, normalized to the ACTB control and the DMSO control via the 2^−ΔΔCT method, relative to DMSO control from 4 independent experiments. Asterisks denote statistical significance via 2-tailed Student’s t-test relative to a nominal mean log2 fold change of ‘0’ (α = 0.05). PS = primitive streak; LPM = lateral plate mesoderm.
Legend for Supplementary Tables 1-3
Supplementary tables 1-3 contain qRT-PCR data obtained using the Taqman hPSC Scorecard Assay (Thermo Fisher).Lysates of Gibco and XCL-1 hiPSCs were purified to RNA using RNeasy procedure (Qiagen). Reverse transcription was performed using the cDNA high capacity reverse transcription kit(Invitrogen). dsDNA content was calculated using Qubit dsDNA HS kit(Invitrogen). cDNA was loaded into hPSC pluripotency panel pre-loaded 384 well plates, and plates were run on Viia7 using standard curve method. The hPSC scorecard analysis software (Thermo Fisher) was used to calculate the relative gene expression scores forself-renewal genes, ectoderm genes, endoderm genes, and mesoderm genes. Scores are provided from pooled lysates from replicate wells ofa single experiment. Cells were cultured as described herein. […]

human SALL4 = biological target: T2, human SALL4 (Homo sapiens, UniProt Q9UJQ4); assay: Immunoblot of SALL4 degradation in Lenti-x 293 CRBN-/- cells expressing human CRBN variants; assay type: cell-based; details: 20 µM thalidomide, 10 µM lenalidomide, 1 µM pomalidomide, 24 hours; relative to wild-type human CRBN
T2 construct: expressed in transfected cells; host or cells: Lenti-x 293 CRBN CRISPR KO (CRBN-/-) cells stably expressing human SALL4, transiently transfected with FLAG-CRBN variants
T2 sequence (Q96SW2 whole entry partner): as the sequence (Q96SW2 whole entry) above
T2 sequence (Q16531 whole entry partner): as the sequence (Q16531 whole entry partner) above
T2 sequence (Q9UJQ4 whole entry): as the sequence (Q9UJQ4 whole entry) above
From the text: SALL4 were transiently transfected with vectors expressing GFP or human CRBN variants and treated with
CRBN-/- cells transfected with empty vector were used as a negative control. The cells were then lysed and
characterized by immunoblotting analysis for SALL4, ZFP91, GFP, CRBN, and β-actin.
CRBN CRISPR KO (CRBN -/-) cells were maintained in Dulbecco’s Modified Eagle’s medium (DMEM;
Invitrogen) supplemented with 10% fetal bovine serum (FBS; Invitrogen). All cell lines were confirmed
mycoplasma-negative using the MycoAlert Mycoplasma Detection Kit (Lonza).
CRBN-/- cells stably expressing human SALL4 was transiently transfected with 4 µg of pcDNA3-GFP, pcDNA3-
FLAG-CRBN WT (isoform 1),pcDNA3-FLAG-CRBN E377V (isoform 1) or pcDNA3-FLAG-CRBN V388I (isoform
Cells were then harvested and lysed, and
whole cell extract was subjected to immunoblotting analysis. Cells were washed with ice-cold 1X PBS and
lysed in 50mM Tris-HCl [pH 7.6], 150 mM NaCl, 1% Triton X-100, and 1x Complete ULTRA protease inhibitor
cocktail and PhosSTOP phosphatase inhibitor cocktail. Whole cell extracts were collected after
centrifugation at top speed for 10 minutes, resolved by sodium dodecyl sulfate polyacrylamide gel
electrophoresis, transferred onto a nitrocellulose membrane using the Turboblot system (Bio-Rad), and
probed with the indicated primary antibodies. Bound antibodies were detected with IRDye®-680 or -800 […]

[1] = test system: mouse embryonic stem cells; details: cited from earlier work
hPSC = test system: hPSC; parameters: method as in PMID 24154490; details: cited from earlier work

IC50 (XCL-1 hiPSC CRBN KO/KI): > 50000 nM
IC50 (XCL-1 hiPSC SALL4^G416A): > 50000 nM
effect on SALL4 MFI (SALL4): potently reduced SALL4 MFI
SALL4 degradation in human cells expressing CRBN with the V388I mutation (human SALL4): failed to induce SALL4 degradation
SMILES: O=C1CCC(N2C(=O)c3ccccc3C2=O)C(=O)N1 (stereo not drawn) [Thalidomide, thalidomide]
IC50 (XCL-1 hiPSC CRBN Mock): 1900 ± 2300 nM
IC50 (XCL-1 hiPSC SALL4 Mock): 1800 ± 2600 nM
effect on marker gene expression during LPM differentiation (words) (Gibco hiPSCs): did not affect expression of the other measured markers
effect on marker gene expression during LPM differentiation (words) (Gibco hiPSCs; listed as thalidomide): significantly reduced the expression of both FOXF1 and SOX17
reduction of FOXF1 expression (Gibco hiPSCs; hPSC Scorecard panel): ~ 60%
reduction of SOX17 expression (Gibco hiPSCs; hPSC Scorecard panel): > 95%
concentration for nonspecific toxicity in the mEST [1]: above 400 µM
non-cytotoxic concentrations at which the definitive endoderm assay was sensitive (hPSC): below 1 µM
